Test results taken from patent US4329353A (priority 1981, dated 1982).
Structures can show the parent of a compound that is named as a salt. Where two headings read alike, the source gives them in different places.

System: apomorphine-induced emesis
Assay: animal or person
Assay type: in vivo, beagle dogs
Conditions: Canis lupus familiaris, sc, 1 h

Row | Compound | ED50 (read-out: ED50 (APO)-dog) | ED50 (read-out: ED50 (APO)dog)
1 | CC(=O)CCN1CN(c2ccc(F)cc2)C2(CCN(C3CCC(C#N)(c4ccc(F)cc4)CC3)CC2)C1=O (single isomer, unassigned) [CH2 CH2 COCH3, B, HCl . H2 O] | 2 µg/kg | –
2 | NC(=O)C1(c2ccc(F)cc2)CCC(N2CCC3(CC2)C(=O)NCN3c2ccc(F)cc2)CC1 (centres unmarked) [CONH2,4-FC6 H4,4-FC6 H4, B, base, (B)-1-(4-fluorophenyl)-4-[1-(4-fluorophenyl)-4-oxo-1,3,8-triazaspiro[4,5]dec-8-yl]cyclohexanecarboxamide] | – | 8 µg/kg
3 | N#CC1(c2ccc(F)cc2)CCC(N2CCC3(CC2)C(=O)N(C(=O)Nc2ccccc2)CN3c2ccc(F)cc2)CC1 (centres unmarked) [CONHC6 H5, B, base, (B)-8-[4-cyano-4-(4-fluorophenyl)cyclohexyl]-1-(4-fluorophenyl)-4-oxo-N-phenyl-1,3,8-triazaspiro[4,5]decane-3-carboxamide] | < 160 µg/kg | –
4 | COC(=O)C1(c2ccc(F)cc2)CCC(N2CCC3(CC2)C(=O)NCN3c2ccc(F)cc2)CC1 (centres unmarked) [COOCH3,4-FC6 H4,4-FC6 H4, base] | – | 1.8 µg/kg
5 | CNC(=S)N1CN(c2ccc(F)cc2)C2(CCN(C3CCC(C#N)(c4ccc(F)cc4)CC3)CC2)C1=O (centres unmarked) [CSNHCH3, base, (B)-8-[4-cyano-4-(4-fluorophenyl)cyclohexyl]-1-(4-fluorophenyl)-N-methyl-4-oxo-1,3,8-triazaspiro[4,5]decane-3-carbothioamide] | < 4 µg/kg | –
